Experimental data reported in patent US20240174714A1, “TREATMENT OF SKIN DISORDERS” (priority 2021, published 2024).
In brackets after ≈: the same amount, converted by molar mass. Square brackets hold non-standard residues; d marks the D form. Peptide text beside a SMILES is read from it. * marks the point of attachment. NH(1-CH2NMe2-cBu) = CN(C)CC1(N*)CCC1; Benzoyl(4-F) = O=C(c1ccc(F)cc1)*; hCha = N[C@@H](CCC1CCCCC1)C(=O)O; Aib = CC(C)(N)C(=O)O; βAla = NCCC(=O)O

Assays:
[1] = system: Streptococcus agalactiae ATCC 12386; test: MIC broth microdilution, method 1; assay type: cell-based; details: CAMHB II, 5% LHB, 1 day at 36° C., 6027 acetate
[2] = system: axenic Leishmania donovani MHOM-ET-67/L82 amastigotes; test: In vitro antiprotozoal assay, axenic amastigotes; assay type: cell-based; details: axenic amastigotes; read-out: L.don.ax. IC50
Experimental: The testing of the inventive compounds against Leishmania donovani (strain MHOM/ET/67/L82) was performed in 96 well plates at concentrations in serial dilutions. Tests were done in triplicate.

[3] = system: Staphylococcus aureus NARSA NRS22; test: microbe, parasite or virus in culture; assay type: cell-based
[4] = system: Staphylococcus aureus NARSA NRS382; test: microbe, parasite or virus in culture; assay type: cell-based; details: NARSA NRS382
[5] = system: Staphylococcus aureus ATCC BAA-1556, USA300 MRSA; test: microbe, parasite or virus in culture; assay type: cell-based; details: ATCC BAA-1556
Experimental: Pre-formulated compound solution was diluted in 100% DMSO to prepare a 1.6 mg/mL working stock solution. […] The concentration range was 0.032 to 32 μg/mL.

[6] = Cytotoxicity assay (Alamar Blue) on L6-cells; assay type: cell-based, rat; details: rat
Experimental: Tests were done in triplicate.
The plates were incubated for additional 2 h.

[7] = system: Streptococcus pyogenes ATCC 19615; test: MIC broth microdilution, method 1; assay type: cell-based; details: CAMHB II, 5% LHB, 1 day at 36° C., 6027 acetate
physchem [8] = details: water
[9] = system: Staphylococcus aureus ECL 2963646; test: microbe, parasite or virus in culture; assay type: cell-based
[10] = system: Staphylococcus aureus NARSA NRS119; test: microbe, parasite or virus in culture; assay type: cell-based; details: NARSA NRS119
[11] = system: S. aureus (USA300 MRSA, BAA-1556); test: S. aureus dermal infection model in ICR mice, CFU/skin; assay type: in vivo, Staphylococcus aureus; details: 25 hours post inoculation; topical BID at 1 and 7 h post infection, 20 μL/mouse; 6027 1% in DMSO, fusidic acid 2%
Experimental: Inoculum preparation. The testing strain, S. aureus USA300 MRSA (BAA-1556), was obtained from the frozen working stock and thawed at room temperature. A 0.2 mL aliquot was inoculated into 20 mL Brain-Heart Infusion broth (BHI) and then incubated at 35-37° C. with shaking (120 rpm) for 8 h. Bacterial cells in the 20 mL culture were pelleted by centrifugation at 3,500×g for 15 minutes and then re-suspended in 10 mL cold PBS (>8.0×10^9 CFU/mL, OD620 1.8-2.0). The culture was then diluted in PBS to the target inoculum of 1.0×10^7 CFU/mL. The actual bacterial counts were determined by plating dilutions onto nutrient agar (NA) plates followed by 20-24 h incubation and colony counting. The actual CFU counts were 1.04×10^7 CFU/mL.
S. aureus (USA300 MRSA, BAA-1556) dermal infection model. Groups of 5 female ICR mice weighing 24±2 g were used. Animals were anesthetized with etomidate-lipuro emulsion (20 mg/10 mL) at 20 mg/kg by intravenous (IV) injection, and then the fur on the back was removed by an electric shaver, and the epidermal layer was disrupted with an abrasive paper. Mice were inoculated topically (TOP) on the wound area with S. aureus (MRSA, BAA-1556) suspension, 5 μL/mouse. The target inoculation density was 5×10^4 CFU/mouse and the actual inoculum count 5.2×10^4 CFU/mouse. Animals were housed separately after infection. Compound 6027 in DMSO at 1% was administered topically (TOP) twice (BID) at 1 and 7 h post infection. Reference control agent, fusidic acid cream at 20 mg/gram (2%), was administered TOP BID at 1 and 7 h post infection. One infected and untreated group was sacrificed at 1 h after infection for the initial (baseline) bacterial counts. The dose volumes were 20 μL/mouse for all dosing groups.
Animals were sacrificed at 1 or 25 h after inoculation with CO2 asphyxiation. The infected skin samples of the wound infection (around 2 cm 2 areas) were excised and were homogenized in 1 mL PBS (pH 7.4) with a polytron homogenizer. A 0.1 mL aliquot of each homogenate was used for serial 10-fold dilutions and plated onto NA plates for bacterial enumeration. The bacterial counts (CFU/skin) in skin tissues were calculated and the percentage decrease in counts compared to the corresponding vehicle control (placebo) was calculated with the following formula: Decrease (%)=[(CFU/skin of placebo —CFU/skin of treatment)/(CFU/skin of placebo)]×100%.

[12] = system: Trichophyton rubrum (ATCC 10218); assay type: cell-based
Experimental: (§1) Pre-formulated compound solution was diluted in 100% DMSO to prepare a 1.6 mg/mL working stock solution. […] Test concentration range was 0.032 to 32 μg/mL.
(§2) Vehicle-control and an active reference agent were used as blank and positive controls.

[13] = system: Trichophyton mentagrophytes (ATCC 9533); assay type: cell-based
Experimental: as §1, §2

[14] = system: Staphylococcus aureus ATCC 29213; test: MIC broth microdilution, method 1; assay type: cell-based; details: CAMHB II, 1 day at 36° C., 6027 acetate
[15] = system: Staphylococcus aureus NARSA NRS383; test: microbe, parasite or virus in culture; assay type: cell-based; details: NARSA NRS383
physchem [16] = details: octanol/water
[17] = system: Staphylococcus aureus ATCC 43300, MRSA; assay type: cell-based; details: ATCC 43300, 18 h
Experimental: The antibacterial activity of inventive compounds was evaluated in duplicate in a further Minimum Inhibitory Concentration (MIC) assay.
Bacteria were cultured in Cation-adjusted Mueller Hinton broth (CAMHB) at 37° C. overnight. A sample of each culture was then diluted 40-fold in fresh broth and incubated at 37° C. for 1.5-3 h. The resultant mid-log phase cultures were diluted (CFU/mL measured by OD600), then added to each well of the compound containing plates, giving a cell density of 5×10^5 CFU/mL and a total volume of 50 μL. All the plates were covered and incubated at 37° C. for 18 h without shaking.
Samples were prepared in DMSO and serially diluted 2 fold 8 times. Each sample concentration was prepared in 384-well plates, non-binding surface plate (NBS; Corning 3640) for the bacterial strain ATCC 43300, MRSA. The final DMSO concentration was at a maximum of 0.5%.
Inhibition of bacterial growth was determined measuring absorbance at 600 nm (OD600), using a Tecan M1000 Pro monochromator plate reader. The percentage of growth inhibition was calculated for each well, using the negative control (media only) and positive control (bacteria without inhibitors) on the same plate as references. […] Vancomycin was used as positive bacterial inhibitor standards.

## CC(C)C[C@H](NC(=O)[C@H](CCC1CCCCC1)NC(=O)[C@@H]1CCCN1C(=O)c1ccc(F)cc1)C(=O)NC(C)(C)C(=O)N[C@@H](CC(C)C)C(=O)N[C@@H](CC(C)C)C(=O)NC(C)(C)C(=O)NC(C)(C)C(=O)NCCC(=O)NC1(CN(C)C)CCC1 [Compound 6027, (2S)-2-[(2S)-4-cyclohexyl-2-{[(2S)-1-(4-fluorobenzoyl)pyrrolidin-2-yl]formamido}butanamido]-N-(1-{[(1S)-1-{[(1S)-1-({1-[(1-{[2-({1-[(dimethylamino)methyl]cyclobutyl}carbamoyl)ethyl]carbamoyl}-1-methylethyl)carbamoyl]-1-methylethyl}carbamoyl)-3-methylbutyl]carbamoyl}-3-methylbutyl]carbamoyl}-1-methylethyl)-4-methylpentanamide] ({Benzoyl(4-F)}-P[hCha]L[Aib]LL[Aib][Aib][βAla]-{NH(1-CH2NMe2-cBu)})
[1]
  MIC of 6027: 1 µg/mL
[2]
  IC50: 0.0057 µM
[3]
  MIC of 6027: 2 µg/mL
[4]
  MIC of 6027: 1 µg/mL
[5]
  MIC: 1 µg/mL (≈ 0.847 µM)
[6]
  IC50 at 68 h: 1.34 µM
[7]
  MIC of 6027: 4 µg/mL
Physchem [8]
  solubility: 22 µg/mL (≈ 18.6 µM)
[9]
  MIC of 6027: 2 µg/mL
[10]
  MIC of 6027: 2 µg/mL
[11]
  Decrease (%) in CFU/skin vs vehicle control: 71%
  LogCFU/skin after 25 hours (Standard error of the mean − SEM): 6.50 (0.16) LogCFU/skin
[12]
  T. rubrum (ATCC 10218) MIC: 32 µg/mL
[13]
  T. mentagrophytes (ATCC 9533) MIC: 16 µg/mL
[14]
  MIC of 6027: 1 µg/mL
[15]
  MIC of 6027: 2 µg/mL
Physchem [16]
  logD: 4.56
[17]
  MIC: 2 µg/mL (≈ 1.69 µM)
